Data taken from the NIST ThermoML archive (doi:10.1016/j.tca.2015.02.020).

Test: molar heat capacity at constant pressure; xn = mol fraction of the nth substance listed
Settings: 101 kPa, Liquid, Small sample (50 mg) DSC

NCCCO [3-amino-1-propanol] + O
Settings	molar heat capacity at constant pressure [J/K/mol]
207.56 K, x1 = 0.16	73.85
207.57 K, x1 = 0.26	81.82
208.04 K, x1 = 0.68	129.03
209.45 K, x1 = 0.19	75.33
209.97 K, x1 = 0.68	142.1
210.91 K, x1 = 0.19	78.22
211.07 K, x1 = 0.26	88.06
212.29 K, x1 = 0.16	75.21
212.29 K, x1 = 0.26	82.81
212.78 K, x1 = 0.68	130.16
213.28 K, x1 = 0.68	142.67
214.19 K, x1 = 0.19	76.49
214.23 K, x1 = 0.19	79.09
214.38 K, x1 = 0.26	89.05
217.03 K, x1 = 0.16	76.56
217.04 K, x1 = 0.26	84.12
217.51 K, x1 = 0.68	131.3
218.93 K, x1 = 0.19	78.22
220.86 K, x1 = 0.19	81.11
221.02 K, x1 = 0.26	90.36
221.77 K, x1 = 0.16	78.19
221.77 K, x1 = 0.26	85.11
222.25 K, x1 = 0.68	133
223.67 K, x1 = 0.19	79.95
224.18 K, x1 = 0.19	83.13
224.35 K, x1 = 0.26	91.35
226.51 K, x1 = 0.16	79.55
226.51 K, x1 = 0.26	86.42
226.99 K, x1 = 0.68	133.57
228.4 K, x1 = 0.19	81.39
230.81 K, x1 = 0.19	87.46
230.97 K, x1 = 0.26	93.32
231.25 K, x1 = 0.16	81.18
231.25 K, x1 = 0.26	88.06
231.73 K, x1 = 0.68	134.71
233.15 K, x1 = 0.19	82.84
234.29 K, x1 = 0.26	94.31
235.99 K, x1 = 0.16	82.54
235.99 K, x1 = 0.26	89.71
236.47 K, x1 = 0.68	135.85
237.88 K, x1 = 0.19	84.28
240.73 K, x1 = 0.16	83.89
240.73 K, x1 = 0.26	91.02
240.77 K, x1 = 0.19	89.19
240.93 K, x1 = 0.26	96.61
241.21 K, x1 = 0.68	137.55
242.63 K, x1 = 0.19	85.72
244.1 K, x1 = 0.19	90.63
244.25 K, x1 = 0.26	97.92
245.48 K, x1 = 0.16	85.52
245.48 K, x1 = 0.26	92.66
245.96 K, x1 = 0.68	138.69
247.38 K, x1 = 0.19	87.17
249.79 K, x1 = 0.16	90.14
250.23 K, x1 = 0.16	86.88
250.23 K, x1 = 0.26	94.31
250.71 K, x1 = 0.68	140.39
250.75 K, x1 = 0.19	93.23
250.9 K, x1 = 0.26	100.22
252.13 K, x1 = 0.19	88.61
253.11 K, x1 = 0.16	91.5
254.07 K, x1 = 0.19	94.09
254.23 K, x1 = 0.26	101.21
254.97 K, x1 = 0.16	88.24
254.98 K, x1 = 0.26	95.95
255.46 K, x1 = 0.68	142.1
256.88 K, x1 = 0.19	90.05
259.73 K, x1 = 0.16	89.32
259.73 K, x1 = 0.26	97.59
259.77 K, x1 = 0.16	93.94
260.2 K, x1 = 0.68	143.8
260.72 K, x1 = 0.19	96.4
260.88 K, x1 = 0.26	103.84
261.62 K, x1 = 0.19	91.5
263.1 K, x1 = 0.16	95.03
264.05 K, x1 = 0.19	97.56
264.21 K, x1 = 0.26	104.82
264.47 K, x1 = 0.16	90.68
264.48 K, x1 = 0.26	99.24
264.96 K, x1 = 0.68	146.08
266.1 K, x1 = 0.16	96.11
266.1 K, x1 = 0.19	98.13
266.1 K, x1 = 0.26	105.48
266.38 K, x1 = 0.19	92.94
269.23 K, x1 = 0.16	91.77
269.23 K, x1 = 0.26	100.55
269.72 K, x1 = 0.68	147.21
269.76 K, x1 = 0.16	97.2
269.76 K, x1 = 0.68	158.01
270.7 K, x1 = 0.19	99.29
270.87 K, x1 = 0.26	106.79
271.14 K, x1 = 0.19	94.38
273.09 K, x1 = 0.16	98.01
273.1 K, x1 = 0.68	156.88
274.02 K, x1 = 0.16	92.85
274.02 K, x1 = 0.26	102.19
274.07 K, x1 = 0.19	100.16
274.24 K, x1 = 0.26	107.45
274.52 K, x1 = 0.68	149.49
278.94 K, x1 = 0.16	94.21
278.94 K, x1 = 0.19	96.4
278.94 K, x1 = 0.26	103.51
279.44 K, x1 = 0.68	151.19
279.97 K, x1 = 0.16	99.1
279.98 K, x1 = 0.68	157.45
280.95 K, x1 = 0.19	101.02
281.12 K, x1 = 0.26	108.77
283.41 K, x1 = 0.16	98.83
283.42 K, x1 = 0.68	156.88
283.84 K, x1 = 0.16	94.75
283.85 K, x1 = 0.19	97.27
283.85 K, x1 = 0.26	104.82
284.35 K, x1 = 0.68	151.76
284.4 K, x1 = 0.19	101.02
284.56 K, x1 = 0.26	108.77
